In brackets after ≈: the same amount, converted by molar mass. Peptide text beside a SMILES is read from it. * marks the point of attachment. Acm = CC(=O)NC*
Legend:
B. cinerea 101 = assay type: cell-based, Botrytis cinerea; conditions: for IC50: 101, 48 h; for IC50 B. cinerea 101: lowest concentration tested giving less than 50% visible growth vs growth control, potato dextrose medium, 20°C, 48 h, three individual experiments
Description: (§1) Escherichia coli (ATCC 25922), E. coli HB101, Pseudomonas aeruginosa (ATCC 27853), Staphylococcus aureus (ATCC 9144) and Corynebacterium glutamicum (ATCC 13032) were grown at 37°C in Mueller Hinton agar (MH; Difco Laboratories, Detroit, USA). The yeasts Candida albicans (ATCC 10231) and Saccharomyces cerevisiae spp and the mold Botrytis cinerea 101 [33] were cultivated on potato dextrose agar supplemented with 2% glucose at room temperature (RT).
(§2) Fungal spores were dissolved in potato dextrose broth (Difco, Lawrence, KS, USA) and the cell concentration was determined and adjusted after counting in a Bürker chamber. Botrytis cinerea was filtered through a piece of cotton before counting. An aliquot of 50 µl of fungal spores (final concentration 2×10^5 spores/ml) were inoculated in 96-well Nunclon™ microtitre plates (Nagle Nunc Int. Roskilde, Denmark) along with 50 µl of synthetic peptide dissolved in Milli-Q water. Cultures were grown in a dark moist chamber without shaking at 20°C for S. cerevisiae and B. cinerea, and at 37°C for C. albicans. Growth inhibition was determined microscopically after 48 h of incubation. Inhibitory concentrations (IC50) was defined as the lowest concentration tested which yielded less than 50% visible growth compared to the growth control (fungi). Each peptide was tested in parallels in three individual runs for the antimicrobial assays.

C. glutamicum ATCC 13032 = assay type: cell-based, Corynebacterium glutamicum; conditions: ATCC 13032, 24 h
Description: as §1
(§3) Determination of the MIC against bacteria was performed by continuous monitoring of bacterial growth using a Bioscreen C microbiology reader (Labsystems Oy, Helsinki, Finland). The synthetic peptides were tested for antibacterial and antifungal activity at final concentrations (prepared from serial two-fold dilutions) ranging from 0.2 µM to 100 µM. The test was performed in 100-well flat-bottomed honeycomb plates, in which 50 µl peptide solution was incubated with 50 µl of a suspension of an actively growing culture of bacteria diluted to a starting concentration of 2.5×10^5 CFU/ml in Mueller Hinton Broth (MHB). The growth chamber was maintained at 37°C during the incubation period. The absorbance was measured by a turbidometric method with vertical light photometry and a wide band filter (420–580 nm). MIC was defined as the lowest concentration resulting in no visible bacterial growth after 24 h.

S. aureus ATCC 9144 = assay type: cell-based, Staphylococcus aureus; conditions: ATCC 9144, 24 h
Description: as §1, §3

C. albicans ATCC 10231 = assay type: cell-based, Candida albicans; conditions: for IC50: ATCC 10231, 48 h; for IC50 C. albicans ATCC 10231: lowest concentration tested giving less than 50% visible growth vs growth control, potato dextrose medium, 37°C, 48 h, three individual experiments
Description: as §1, §2

E. coli ATCC 25922 = assay type: cell-based, Escherichia coli; conditions: ATCC 25922, 24 h
Description: as §1, §3

P. aeruginosa ATCC 27853 = assay type: cell-based, Pseudomonas aeruginosa; conditions: ATCC 27853, 24 h
Description: as §1, §3

S. cerevisiae spp. = assay type: cell-based, Saccharomyces cerevisiae; conditions: 48 h
Description: as §1, §2

E. coli HB101 = test: Antibacterial MIC assay (Bioscreen C growth monitoring); assay type: cell-based, Escherichia coli; conditions: lowest concentration with no visible bacterial growth after 24 h; 37°C, 50% MH, 2.5×10^5 cells/mL; representative of three individual experiments
Description: as §1, §3

SMILES | IC50 (B. cinerea 101) | MIC C. glutamicum ATCC 13032 (C. glutamicum ATCC 13032) | MIC S. aureus ATCC 9144 (S. aureus ATCC 9144) | IC50 (C. albicans ATCC 10231) | MIC E. coli ATCC 25922 (E. coli ATCC 25922) | MIC P. aeruginosa ATCC 27853 (P. aeruginosa ATCC 27853) | IC50 (S. cerevisiae spp.) | IC50 C. albicans ATCC 10231 (C. albicans ATCC 10231) | MIC E. coli HB101 (E. coli HB101) | IC50 B. cinerea 101 (B. cinerea 101)
N=C(N)NCCC[C@H](NC(=O)[C@@H](N)CO)C(=O)N[C@@H](Cc1c[nH]c2ccccc12)C(=O)N1CCC[C@H]1C(=O)N[C@@H](CO)C(=O)N1CCC[C@H]1C(=O)NCC(=O)N[C@@H](CCCNC(=N)N)C(=O)N1CCC[C@H]1C(=O)N[C@@H](CCCNC(=N)N)C(=O)N1CCC[C@H]1C(=O)N[C@@H](Cc1ccccc1)C(=O)N1CCC[C@H]1C(=O)NCC(=O)O [Arasin 1(1–14)] (H-SRWPSPGRPRPFPG-OH; N-terminus and C-terminus assumed) | > 100 µM | >100 µM | >100 µM | > 100 µM | >100 µM | >100 µM | > 100 µM |  |  | 
CC[C@H](C)[C@H](NC(=O)[C@@H]1CCCN1C(=O)[C@H](CCCCN)NC(=O)[C@@H]1CCCN1C(=O)[C@H](CCCNC(=N)N)NC(=O)CNC(=O)[C@@H]1CCCN1C(=O)[C@H](Cc1ccccc1)NC(=O)[C@@H]1CCCN1C(=O)[C@H](CCCNC(=N)N)NC(=O)[C@@H]1CCCN1C(=O)[C@H](CCCNC(=N)N)NC(=O)CNC(=O)[C@@H]1CCCN1C(=O)[C@H](CO)NC(=O)[C@@H]1CCCN1C(=O)[C@H](Cc1c[nH]c2ccccc12)NC(=O)[C@H](CCCNC(=N)N)NC(=O)[C@@H](N)CO)C(=O)N[C@@H](Cc1ccccc1)C(=O)O [Arasin 1(1–20)] (H-SRWPSPGRPRPFPGRPKPIF-OH; N-terminus and C-terminus assumed) | 25 to 50 µM | 12.5 to 25 µM | >100 µM |  | >100 µM | >100 µM | 25 µM | 50 µM |  | 
CC[C@H](C)[C@H](NC(=O)[C@@H]1CCCN1C(=O)[C@H](CCCCN)NC(=O)[C@@H]1CCCN1C(=O)[C@H](CCCNC(=N)N)NC(=O)CNC(=O)[C@@H]1CCCN1C(=O)[C@H](Cc1ccccc1)NC(=O)[C@@H]1CCCN1C(=O)[C@H](CCCNC(=N)N)NC(=O)[C@@H]1CCCN1C(=O)[C@H](CCCNC(=N)N)NC(=O)CNC(=O)[C@@H]1CCCN1C(=O)[C@H](CO)NC(=O)[C@@H]1CCCN1C(=O)[C@@H](N)Cc1c[nH]c2ccccc12)C(=O)N[C@@H](Cc1ccccc1)C(=O)N[C@@H](CCCNC(=N)N)C(=O)N1CCC[C@H]1C(=O)N[C@@H](CCCNC(=N)N)C(N)=O [Arasin 1(3–23)] (H-WPSPGRPRPFPGRPKPIFRPR-NH2; N-terminus assumed) | 25 µM | 3.1 µM (≈ 7.74 µg/mL) | >100 µM | 25 µM | 25 to 50 µM | 100 µM (≈ 250 µg/mL) | 12.5 µM |  | 12.5 µM (≈ 31.2 µg/mL) | 
CC[C@H](C)[C@H](NC(=O)[C@@H]1CCCN1C(=O)[C@H](CCCCN)NC(=O)[C@@H]1CCCN1C(=O)[C@H](CCCNC(=N)N)NC(=O)CNC(=O)[C@@H]1CCCN1C(=O)[C@H](Cc1ccccc1)NC(=O)[C@@H]1CCCN1C(=O)[C@H](CCCNC(=N)N)NC(=O)[C@@H]1CCCN1C(=O)[C@H](CCCNC(=N)N)NC(=O)CNC(=O)[C@@H]1CCCN1C(=O)[C@@H](N)CO)C(=O)N[C@@H](Cc1ccccc1)C(=O)N[C@@H](CCCNC(=N)N)C(=O)N1CCC[C@H]1C(=O)N[C@@H](CCCNC(=N)N)C(N)=O [Arasin 1(5–23)] (H-SPGRPRPFPGRPKPIFRPR-NH2; N-terminus assumed) | 25 µM | 6.3 µM (≈ 14 µg/mL) | >100 µM | 25 µM | >100 µM | >100 µM | 12.5 µM |  | 100 µM (≈ 221 µg/mL) | 
CC[C@H](C)[C@H](NC(=O)[C@@H]1CCCN1C(=O)[C@H](CCCCN)NC(=O)[C@@H]1CCCN1C(=O)[C@H](CCCNC(=N)N)NC(=O)CNC(=O)[C@@H]1CCCN1C(=O)[C@H](Cc1ccccc1)NC(=O)[C@@H]1CCCN1C(=O)[C@H](CCCNC(=N)N)NC(=O)[C@@H]1CCCN1C(=O)[C@H](CCCNC(=N)N)NC(=O)CN)C(=O)N[C@@H](Cc1ccccc1)C(=O)N[C@@H](CCCNC(=N)N)C(=O)N1CCC[C@H]1C(=O)N[C@@H](CCCNC(=N)N)C(N)=O [Arasin 1(7–23)] (H-GRPRPFPGRPKPIFRPR-NH2; N-terminus assumed) |  | 3.1 µM (≈ 6.29 µg/mL) | >100 µM | 25 µM | 50 to 100 µM | 50 to 100 µM | 12.5 µM |  | 25 µM (≈ 50.8 µg/mL) | 50 µM
CC[C@H](C)[C@H](NC(=O)[C@@H]1CCCN1C(=O)[C@H](CCCCN)NC(=O)[C@@H]1CCCN1C(=O)[C@H](CCCNC(=N)N)NC(=O)CNC(=O)[C@@H]1CCCN1C(=O)[C@H](Cc1ccccc1)NC(=O)[C@@H]1CCCN1C(=O)[C@H](CCCNC(=N)N)NC(=O)[C@@H]1CCCN1)C(=O)N[C@@H](Cc1ccccc1)C(=O)N[C@@H](CCCNC(=N)N)C(=O)N1CCC[C@H]1C(=O)N[C@@H](CCCNC(=N)N)C(N)=O [Arasin 1(9–23)] (H-PRPFPGRPKPIFRPR-NH2; N-terminus assumed) |  | 12.5 µM (≈ 22.7 µg/mL) | >100 µM |  | >100 µM | >100 µM | 25 µM | 50 µM | 100 µM (≈ 182 µg/mL) | 50 µM
CC[C@H](C)[C@H](NC(=O)[C@@H]1CCCN1C(=O)[C@H](CCCCN)NC(=O)[C@@H]1CCCN1C(=O)[C@H](CCCNC(=N)N)NC(=O)CNC(=O)[C@@H]1CCCN1C(=O)[C@H](Cc1ccccc1)NC(=O)[C@@H]1CCCN1C(=O)[C@H](CCCNC(=N)N)NC(=O)[C@@H]1CCCN1C(=O)[C@H](CCCNC(=N)N)NC(=O)CNC(=O)[C@@H]1CCCN1C(=O)[C@H](CO)NC(=O)[C@@H]1CCCN1C(=O)[C@H](Cc1c[nH]c2ccccc12)NC(=O)[C@H](CCCNC(=N)N)NC(=O)[C@@H](N)CO)C(=O)N[C@@H](Cc1ccccc1)C(=O)N[C@@H](CCCNC(=N)N)C(=O)N1CCC[C@H]1C(=O)N[C@@H](CCCNC(=N)N)C(=O)N1CCC[C@H]1C(=O)N[C@@H](CSCNC(C)=O)C(=O)N[C@@H](CC(N)=O)C(=O)N[C@@H](CSCNC(C)=O)C(=O)N[C@@H](Cc1ccc(O)cc1)C(=O)N[C@@H](C)C(=O)N1CCC[C@H]1C(=O)N1CCC[C@H]1C(=O)N[C@@H](CSCNC(C)=O)C(=O)N1CCC[C@H]1C(=O)N[C@@H](CSCNC(C)=O)C(=O)N[C@@H](CC(=O)O)C(=O)N[C@@H](CCCNC(=N)N)C(=O)N[C@@H](Cc1c[nH]c2ccccc12)C(=O)O [Arasin 1-Acm] (H-SRWPSPGRPRPFPGRPKPIFRPRPC(Acm)NC(Acm)YAPPC(Acm)PC(Acm)DRW-OH; N-terminus and C-terminus assumed) | 12.5 to 50 µM | 0.8 µM (≈ 3.71 µg/mL) | >100 µM | 25 µM | 25 to 50 µM | 100 µM (≈ 463 µg/mL) | 12.5 µM |  |  | 

Reference: paper PMC3543460, “Structure-Activity Relationships of the Antimicrobial Peptide Arasin 1 — And Mode of Action Studies of the N-Terminal, Proline-Rich Region” (PLoS ONE, 2013)
